In brackets after ≈: the same amount, converted by molar mass.
Key:
[1] = target: T1, epidermal growth factor receptor-tyrosine kinase complex (Homo sapiens, UniProt P00533); assay: Tyrosine kinase inhibiting activity (A-431 membrane preparation, EGF-stimulated); type: biochemical; conditions: read-out: Tyrosine kinase inhibition rate; for inhibition at 1 µM: 1 μM in the reaction mixture; for inhibition at 10 µM: 10 μM in the reaction mixture
T1 construct: The membrane preparation was employed in the following measurement without solubilization; endogenous in cells; host or cells: A-431 (ATCC CRL1555), membrane preparation, not solubilized
T1 sequence (P00533 25-1210, one chain of several): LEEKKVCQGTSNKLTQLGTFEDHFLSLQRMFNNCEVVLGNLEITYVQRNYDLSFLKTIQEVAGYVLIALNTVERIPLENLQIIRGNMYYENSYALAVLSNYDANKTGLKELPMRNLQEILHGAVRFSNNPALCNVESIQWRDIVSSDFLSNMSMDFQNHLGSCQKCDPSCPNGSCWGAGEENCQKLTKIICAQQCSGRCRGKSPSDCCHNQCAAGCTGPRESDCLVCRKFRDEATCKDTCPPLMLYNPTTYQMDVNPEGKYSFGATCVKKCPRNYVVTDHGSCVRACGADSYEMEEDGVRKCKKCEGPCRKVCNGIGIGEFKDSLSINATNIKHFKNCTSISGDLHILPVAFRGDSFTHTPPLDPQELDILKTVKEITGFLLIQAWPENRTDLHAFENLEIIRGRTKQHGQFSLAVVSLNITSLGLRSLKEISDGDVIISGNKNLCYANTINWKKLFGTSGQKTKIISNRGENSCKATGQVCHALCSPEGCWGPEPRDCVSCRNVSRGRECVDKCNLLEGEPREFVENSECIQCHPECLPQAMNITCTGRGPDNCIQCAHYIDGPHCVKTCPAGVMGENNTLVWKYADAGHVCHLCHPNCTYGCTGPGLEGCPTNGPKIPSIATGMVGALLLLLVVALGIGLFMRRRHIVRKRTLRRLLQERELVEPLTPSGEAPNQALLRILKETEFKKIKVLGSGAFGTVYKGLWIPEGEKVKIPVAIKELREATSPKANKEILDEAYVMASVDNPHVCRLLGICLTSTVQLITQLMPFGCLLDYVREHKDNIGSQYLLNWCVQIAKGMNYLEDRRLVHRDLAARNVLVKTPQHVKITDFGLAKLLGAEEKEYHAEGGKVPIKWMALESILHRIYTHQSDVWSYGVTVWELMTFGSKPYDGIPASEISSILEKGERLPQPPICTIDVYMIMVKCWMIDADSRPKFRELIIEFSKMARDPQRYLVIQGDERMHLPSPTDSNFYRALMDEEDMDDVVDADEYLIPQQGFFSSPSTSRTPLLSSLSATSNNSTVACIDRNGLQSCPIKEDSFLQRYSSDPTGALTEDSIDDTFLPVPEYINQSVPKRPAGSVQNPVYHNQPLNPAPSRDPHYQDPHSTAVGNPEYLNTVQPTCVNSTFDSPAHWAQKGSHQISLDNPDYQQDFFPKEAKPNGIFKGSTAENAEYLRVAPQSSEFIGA
Procedure: Tyrosine kinase inhibiting activity of the compound of the present invention was measured referring to a method for measuring tyrosine kinase activity by G. Carpenter or by S. Cohen et al. [J. Biol. Chem., 254, 4884(1979); J. Biol. Chem., 257, 1528(1982)].
Cell line A-431 derived from human carcinoma (ATCC CRL1555) was cultured at 37° C. under the condition of 5% CO2 in Dulbecco's modified Eagle's medium (made by NISSUE PHARMACEUTICAL CO., LTD.) containing 10% by volume fetal bovine serum, 50 μg/ml of streptomycin, 50 IU/ml of penicillin G and 50 μg/ml of kanamycin. […] The membrane preparation was employed in the following measurement without solubilization.
A test compound dissolved in dimethylsulfoxide (hereinafter referred to as "DMSO") was added to a mixture of 20 mM of N-2-hydroxyethylpiperazine-N'-2-ethanesulfonic acid buffer (pH 7.4), 1 mM of MnCl2, 7.5 μg of bovine serium albumin and the membrane preparation (10 μg as protein). After incubation at 0° C. for 5 minutes, 100 ng of epidermal growth factor (hereinafter referred to as "EGF") was added thereto and the mixture was further incubated at 0° C. for 15 minutes. [γ-^32 P]ATP (3000 Ci/mmol, 0.1 μCi) was added thereto to make final volume of 70 μl. After incubation at 0° C. for 15 minutes, 50 μl of the reaction mixture was soaked into Whatman 3 MM filter paper (made by Whatman Ltd.) and immediately the reaction was stopped by an aqueous solution of 10% by weight trichloroacetic acid containing 10 mM sodium pyrophosphate. The filter paper was sufficiently washed with the same solution and then washed with ethanol, and dried. Radioactivity present in the filter paper was measured by liquid scintillation counter (A). Also, radioactivity was measured in case of the reaction without EGF (B), the reaction without the test compound (C), and the reaction without both EGF and the test compound (D) as a control.
Tyrosine kinase inhibition rate (%) was calculated by the following equation. [formula]

[2] = test system: Nycobacterium smegmatis ATCC 607; assay: Antibacterial activity (MIC) against acid-fast bacteria; type: cell-based; conditions: 37° C., 40 to 42 hours
Procedure: As for acid-fast bacteria, after cultured in glycerol broth medium, there was prepared a bacterial suspension for inoculation containing about 10^6 of the bacteria per 1 ml of the medium. On the other hand, there were prepared some glycerol Czapek agar plating media with adding the test compounds, and thereto the bacterial suspension for inoculation was streaked.

5-lipoxygenase = target: T2, 5-lipoxygenase (Cavia porcellus, UniProt A0A286X958); assay: 5-Lipoxygenase inhibiting activity (5-HETE formation, cytosol of peritoneal exudate cells); type: biochemical, Hartley guinea pigs; conditions: read-out: Inhibition rate (5-lipoxygenase); for inhibition at 1 µM: 1 μM in the reaction mixture; for inhibition at 10 µM: 10 μM in the reaction mixture
T2 construct: The cytosol fraction was used as an enzyme solution; from tissue; host or cells: peritoneal exudate cells of casein-injected Hartley guinea pigs, 105,000×g cytosol
T2 sequence (A0A286X958 1-674): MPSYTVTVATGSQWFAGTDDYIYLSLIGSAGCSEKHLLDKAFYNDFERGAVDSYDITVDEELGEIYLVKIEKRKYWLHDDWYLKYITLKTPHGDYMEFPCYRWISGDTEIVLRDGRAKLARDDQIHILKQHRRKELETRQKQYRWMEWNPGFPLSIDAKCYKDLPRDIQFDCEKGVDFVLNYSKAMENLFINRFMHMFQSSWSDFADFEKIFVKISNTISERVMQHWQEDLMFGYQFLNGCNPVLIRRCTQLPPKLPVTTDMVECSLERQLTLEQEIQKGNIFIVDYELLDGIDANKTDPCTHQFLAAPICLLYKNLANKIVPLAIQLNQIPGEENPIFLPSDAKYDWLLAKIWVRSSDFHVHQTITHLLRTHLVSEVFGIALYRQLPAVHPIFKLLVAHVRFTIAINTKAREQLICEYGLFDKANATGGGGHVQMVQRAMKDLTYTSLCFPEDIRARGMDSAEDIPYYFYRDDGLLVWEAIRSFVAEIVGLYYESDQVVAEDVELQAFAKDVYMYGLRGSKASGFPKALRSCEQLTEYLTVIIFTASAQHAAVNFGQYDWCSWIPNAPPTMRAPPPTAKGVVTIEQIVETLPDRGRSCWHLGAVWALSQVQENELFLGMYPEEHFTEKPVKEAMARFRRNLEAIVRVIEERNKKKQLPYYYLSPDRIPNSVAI
Procedure: 5-Lipoxygenase inhibiting activity of the compound of the present invention was measured referring to the method for measuring 5-lipoxygenase activity by K. Ochi et al. [Journal of Biological Chemistry (J. Biol. Chem.), 258, 5754(1983)].
Sterilized 2% solution of casein (pH 7) was injected intraperitoneally into Hartley guinea pigs in a volume of 5 ml/100 g body weight. Fifteen hours later, the guinea pigs were killed and peritoneal exudate cells thereof were collected. After the exudate cells were washed with 17 mM Tris--HCl buffer (pH 7.4) containing 0.74% ammonium to remove contaminating erythrocytes in the exudate cells suspension, the cells were washed with buffer A (130 mM NaCl, 1 mM EDTA, 25 mM sodium phosphate, pH 7.4). The washed cells were suspended in buffer B (50 mM sodium phosphate, 1 mM EDTA, 0.1% gelatin, pH 7.4) at 10^8 cells/ml, sonicated and centrifuged at 10,000×g for 20 minutes under the cold atmosphere. The obtained supernatant was further centrifuged at 105,000×g for 60 minutes under the cold atmosphere. The cytosol fraction was used as an enzyme solution.
The enzyme solution was preincubated with the […] in the presence of 1 mM CaCl2, 1 mM reduced gluthathione (GSH) and 2 mM ATP at 30° C. for 5 minutes in 0.2 ml of a reaction mixture and the mixture was further incubated at 30° C. for 5 minutes by adding 20 μM [1-^14 C] arachidonic acid (0.1 μCi) thereto. The test compounds were dissolved in ethanol to give the reaction mixture containing 2% ethanol as a final concentration. Only ethanol was added to the reaction mixture as a control group.
To the reaction mixture were added 2.5 ml of a mixture of chloroform and methanol (2/1 by volume) and 0.3 ml of 40 mM citric acid to stop the reaction. The mixture was vortexed and an organic solvent layer was evaporated to dryness under nitrogen gas. After dissolving the dried organic layer in a fixed amount of the mixture of chloroform and methanol (2/1 by volume), it was spotted on a silica gel plate (Kiesel gel 60F254, E. Merck) and products were separated using a developer (the organic solvent layer of ethyl acetate/water/2,2,4-trimethylpentane/acetic acid=11/10/5/2 by volume). After the radioactive position of the product was determined by means of a radioautography, an area equivalent to that of 5-hydroxyeicosatetraenoic acid (hereinafter referred to as "5-HETE") was scraped off, and then its radioactivity was measured with a liquid scintillation counter. With regarding the amount of the generated 5-HETE as the 5-lipoxygenase inhibiting activity, the inhibition rate (%) in comparison with the control group was calculated according to the following equation. [formula]

[3] = target: T3, reverse transcriptase derived from Moloney-Murine Leukemia Virus (M-MLV) (Moloney murine leukemia virus, UniProt P03355); assay: Inhibiting activity against reverse transcriptase derived from M-MLV; type: biochemical; conditions: read-out: Inhibition rate (reverse transcriptase derived from M-MLV); for inhibition at 10 µM: 10 μM in the reaction mixture
T3 construct: reverse transcriptase derived from Moloney-Murine Leukemia Virus; purchased Pharmacia K. K
Procedure: There was found the following point by using reverse transcriptase derived from Moloney-Murine Leukemia Virus (hereinafter referred to as "M-MLV").
The compound of the present invention was dissolved in DMSO to give a 100 mM solution thereof. Then, the solution was diluted with distilled water containing DMSO to give a solution of the test compound having a defined concentration. A mixed ratio of DMSO and distilled water was adjusted so that the concentration of DMSO at this time is 10% by volume and a final concentration of DMSO at the beginning of a reaction is 1% by volume.
The thus prepared solution of the test compound was mixed with a solution containing 50 mM of Tris--HCl buffer (pH 8.3), 8 mM of MgCl2, 30 mM of NaCl, 50 mM of dithiothreitol (made by Wako Pure Chemical Industries Ltd.), 0.2 mM of thymidine-5'-triphosphate (made by Pharmacia K. K.) and 6 U/ml of reverse transciptase derived from M-MLV (made by Pharmacia K. K.), and preincubated at 37° C. for 30 minutes. After there was added thereto 10 μg/ml of polyadenylic acid (made by PL Biochemicals Co., Ltd.), 0.01 U/ml of oligodeoxy thymidylic acid (made by Pharmacia K. K.) and 10 μCi/ml of [methyl-^3 H] thymidine-5'-triphosphate (made by Amersham Japan Co., Ltd., 47 Ci/mmol) to give a reaction mixture, the mixture was further incubated at 37° C. for 30 minutes, followed by cooling with ice to stop the reaction.
The radioactivity incorporated into deoxyribonucleic acids was measured according to the method of Linteril et al (Science 170, 447 to 449 (1967)). A defined volume of the reaction mixture was soaked into DE-81 filter paper (made by Whatman Ltd.), the filter paper was washed with 5% by weight of Na2 HPO4 solution for three times, and with distilled water and ethanol successively, and then dried. Radioactivity contained in the filter paper was measured by liquid scintillation counter to give the each radioactivity of the test solution groups.
On the other hand, the same procedure as above was carried out using DMSO-distilled water without the test compound instead of using the test solution, to give the value of radioactivity of a control group.
Reverse transcriptase derived from M-MLV inhibition rate (%) was calculated by the following equation. [formula]

[4] = test system: antigen-induced airway constriction; assay: Inhibitory activity against antigen-induced airway constriction in actively sensitized guinea pigs; type: in vivo; conditions: Cavia porcellus, iv, 3 minutes before antigen inhalation, read-out: Inhibition rate (airway constriction)
Procedure: (3) Inhibitory activity against antigen-induced airway constriction in actively sensitized guinea pigs
That is, the sensitized guinea pigs (5 guinea pigs/group) were provided with artificial respiration by inserting a tracheal cannula under urethane anesthesia (1.5 g/kg body weight, intraperitoneal administration), and then, gallamine at 1 mg/kg body weight was injected intravenously to stop spontaneous respiration of the guinea pigs. Inhalation of 0.5% aqueous solution of ovalbumin was conducted using a nebulizer for 1 minute to increase antigen-induced airway constriction, at the same time, airway pressure was recorded through a transducer. Test compound was administered into jugular vein (i.v.) of the guinea pig 3 minutes before the antigen inhalation or administered orally (p.o.) 2 hours before the antigen inhalation. As a positive control compound, theophylline which was a drug for anti-asthma was used. The effect of the compound was estimated by calculating the maximum value of airway constriction (%) in comparison with the control group, according to the following equation. [formula]

SMILES	inhibition at 1 µM [1]	inhibition at 1 µM (5-lipoxygenase)	also measured
CCOc1cc(C=C2SC(NCc3ccccc3)=NC2=O)cc(CSc2ccccc2)c1O [Compound 28]	66%	–	MIC [2]: ≤ 15 µg/mL
O=C1Nc2ccccc2C1=Cc1cc(-c2ccccc2)c(O)c(-c2ccccc2)c1 [Compound 3]	45%	–	–
O=C1OCCC1=Cc1cc(Cc2ccccc2)c(O)c(Cc2ccccc2)c1 [Compound 17]	25%	–	–
CCCCOc1cc(C=C2C(=O)Nc3ccccc32)cc(Cc2ccccc2)c1O [Compound 14]	43%	27%	–
CCOc1cc(C=C(C#N)C(N)=O)cc(Cc2ccccc2)c1O [Compound 21]	98%	–	–
O=C1N=C(NCc2ccco2)SC1=Cc1cc(O)c(O)c(CSc2ccccc2)c1 [Compound 27]	58%	–	inhibition at 1 µM ([3]; 1 μM in the reaction mixture): 73%
COc1cc(C=C2C(=O)Nc3ccccc32)cc(Cc2ccccc2)c1O [Compound 13]	–	86%	–
CC(C)c1cc(C=C2SC(NCc3ccc([N+](=O)[O-])cc3)=NC2=O)cc(C(C)C)c1O [Compound 40]	–	–	inhibition at 10 µM [1]: 21%; inhibition at 10 µM (5-lipoxygenase): 87%
O=C1N=C(NCc2ccccc2)SC1=Cc1cc(-c2ccccc2)c(O)c(-c2ccccc2)c1 [Compound 25]	–	23%	inhibition at 10 µM [1]: 72%
CCCCOc1cc(C=C2SC(NCc3ccccc3)=NC2=O)cc(Cc2ccccc2)c1O [Compound 30]	70%	87%	MIC [2]: ≤ 6 µg/mL
O=C1Nc2ccccc2C1=Cc1cc(CSc2ccccc2)c(O)c(OCc2ccccc2)c1 [Compound 12]	–	84%	inhibition in vivo at 1 mg/kg [4]: 32%; inhibition at 10 µM [1]: 30%
CC(C)c1cc(C=C2SC(NCc3ccco3)=NC2=O)cc(C(C)C)c1O [Compound 43]	–	53%	inhibition in vivo at 5 mg/kg ([4]; 5 mg/kg): 21%; inhibition at 10 µM [1]: 95%
CC(C)c1cc(C=C2SC(NCc3cccs3)=NC2=O)cc(C(C)C)c1O [Compound 44]	80%	–	MIC [2]: ≤ 6 µg/mL
CC(C)c1cc(C=C2SC(NCc3ccccn3)=NC2=O)cc(C(C)C)c1O [Compound 45]	–	36%	inhibition in vivo at 1 mg/kg [4]: 42%; inhibition at 10 µM [1]: 90%; MIC [2]: 2 µg/mL (≈ 5.06 µM)
COc1cc(C=C(C#N)C(N)=O)cc(Cc2ccccc2)c1O [Compound 22]	84%	–	inhibition at 10 µM (5-lipoxygenase): 63%
O=C1Nc2ccccc2S(=O)(=O)C1=Cc1cc(Cc2ccccc2)c(O)c(Cc2ccccc2)c1 [Compound 5]	42%	–	inhibition at 10 µM [3]: 87%
CCOc1cc(C=C2SC(=S)NC2=O)cc(CSc2ccccc2)c1O [Compound 6]	–	–	inhibition at 10 µM [3]: 98%
CCCCOc1cc(C=C2SC(NCc3ccccc3)=NC2=O)cc(CSc2ccccc2)c1O [Compound 29]	63%	86%	–

From patent US5089516A, “1-phenyl-3,5-pyrazolidinedione hydroxystyrene compounds which have tyrosine kinase inhibiting activity” (Kanegafuchi Kagaku Kogyo Kabushiki Kaisha, priority 1987, dated 1992)
